For assay [1], the system named is posterior foregut spheroids. Briefly: Gastric specification of posterior foregut spheroids into fundic hGOs (qPCR/staining). In kind it is cell-based, human. As for the experimental part: Posterior foregut spheroids were collected and transferred to a three-dimensional culture system as previously described^36. Briefly, spheroids were suspended in 50 μl Matrigel (BD Biosciences) and plated as a droplet into 24-well plates. The matrigel was allowed to solidify for 10 minutes in the tissue culture incubator, then overlayed with basic gut media (BGM) containing growth factors and/or small molecule agonsists. BGM consisted of Advanced DMEM/F12 media (Gibco) supplemented with N2 (1×; Invitrogen), B27 (1×; Invitrogen), HEPES ([…]; Gibco), L-glutamine, penicillin/streptomycin, and EGF (100 ng/ml; R&D Systems). During days 6-9, spheroids were cultured with RA and noggin to specify the antral lineage. For fundic specification, CHIR was added during this stage. Antral hGOs were subsequently cultured in BGM with only EGF. Fundic hGOs were continuously exposed to CHIR from day 6-30. […] On day 20, organoids were collected and re-plated at a dilution of 1:10-1:20.
(§1) Total RNA was isolated using Nucleospin RNA II kit (Machery Nagel) and converted to cDNA as previously described7. qPCR was performed on Quantstudio 6 (Applied Biosystems) using Quantitect SYBR-Green master mix (Qiagen), and primer sequences are listed below.
In general terms: Real-time PCR tracks product formation cycle by cycle.

Assay [2] concerns hFGOs. As to the kind of experiment: Screen for factors that increase parietal cell differentiation in hFGOs (qPCR at day 34). In kind it is cell-based, human. The following applies: for parietal cell gene expression (ATP4A and ATP4B): day 30 hFGOs exposed two days, analysed at day 34. As for the experimental part: For screening experiments to identify factors that increase parietal cell differentiation, hFGOs were grown to day 30, then exposed for two days to individual signaling pathway agonists and antagonists: DAPT (1 μM; Stemgent), SB431542 (10 μM; Stemgent), BMP4 (50 ng/ml; R&D Systems), PD0325901 (2 μM; Stemgent), Gastrin (10 nM; Sigma Aldrich), Dexamethasone (50 nM; Sigma Aldrich), and Wnt5a (50 ng/ml; R&D Systems). Following treatment, hFGOs were grown for two more days to day 34, then analyzed by qPCR.
as §1

In assay [3] the test system is hFGOs. As to the kind of experiment: Acid secretion assay, luminal pH by SNARF-5F in fundic hGOs. The assay is classed as cell-based, human. As for the experimental part:
Acid secretion assays were performed as previously described (Schumacher et al., 2015). hGOs were grown in the chambered coverglass (Thermo Scientific) and the chamber was placed on an inverted confocal microscope (Zeiss LSM 710), and experiments were performed under 5% CO2 and 37° C. conditions (incubation chamber, PeCon, Erbach, Germany).
(§2) Freshly isolated mouse gastric fundic glands or cultured hGO were incubated with acridine orange (10 μM), then acridine orange fluorescence was excited at 458 nm or 488 nm and images were collected at 600-650 nm (Red) or 500-550 nm (Green), respectively. On the other hand, to monitor hGOs luminal pH, the ratiometric pH sensitive dye, 5-(and-6)-carboxy SNARF-5F (5 mM stock: EX 560 nm, EM 565-605 (Green) and 620-680 (Red) nm: Invitrogen) was microinjected (46-92 nl) into the lumen and monitored. Fluorescent dye also added into medium. Histamine (100 μM; Sigma) was added to media, while famotidine (100 μM; Sigma) or omeprazole (100 μM; Sigma) were pre-incubated at least 30 min before histamine. Images were analyzed using MetaMorph software (Molecular Devices, Downingtown, Pa.). Background corrected 620-680/565-605 nm ratio values were converted to pH using a standard curve.

Assay [4] has as its system isolated mouse gastric glands. Conditions: histamine, after 60 minutes. As for the experimental part: as §2, with “Acid secretion assays were performed as previously described (Schumacher et al., 2015). hGOs were grown in the chambered coverglass (Thermo Scientific) and the chamber was placed on an inverted confocal microscope (Zeiss LSM 710), and experiments were performed under 5% CO2 and 37° C. conditions (incubation chamber, PeCon, Erbach, Germany). Freshly” for “Freshly”, “Histamine (100 μM;” left out

The test system of assay [5] is hFGOs. The following applies: histamine, hFGO glands. The method, then: as §2, with “Acid secretion assays were performed as previously described (Schumacher et al., 2015). hGOs were grown in the chambered coverglass (Thermo Scientific) and the chamber was placed on an inverted confocal microscope (Zeiss LSM 710), and experiments were performed under 5% CO2 and 37° C. conditions (incubation chamber, PeCon, Erbach, Germany). Freshly” for “Freshly”, “Histamine (100 μM;” left out

For assay [6], the system named is hAGOs. The following applies: histamine 100 μM. As for the experimental part: as §2, with “Acid secretion assays were performed as previously described (Schumacher et al., 2015). hGOs were grown in the chambered coverglass (Thermo Scientific) and the chamber was placed on an inverted confocal microscope (Zeiss LSM 710), and experiments were performed under 5% CO2 and 37° C. conditions (incubation chamber, PeCon, Erbach, Germany). Freshly” for “Freshly”, “Histamine (100 μM;” left out

Where [7] appears, read: CHIR for three days (days 6-9), analysed at day 9.

With `Cc1c[nH]c(-c2cnc(NCCNc3ccc(C#N)cn3)nc2-c2ccc(Cl)cc2Cl)n1` [CHIR99021], in assay [1] (setting [7]), the PDX1 expression result was “nearly complete repression”; the “SOX2 and GATA4 levels” value is “unaffected”; the “expression of IRX2, IRX3, and IRX5” value is recorded as “significantly increased expression”. Moreover, in assay [1] (CHIR-treated hGOs), the “intestinal markers CDX2, MUC2, CCK, or SCT” value is recorded as “did not exhibit a significant increase”. Moreover, in assay [1] (continued CHIR treatment through at least day 29), the fundic gene expression entry is recorded as “stable induction of fundic gene expression”. The “specification of fundic identity” value in assay [1] (three-day pulse of CHIR from days 6-9, later stages) is “not sufficient to irreversibly specify a fundic identity”.

On to `O=C(NOC[C@H](O)CO)c1ccc(F)c(F)c1Nc1ccc(I)cc1F` [PD0325901], for which, in assay [2], the “parietal cell gene expression (ATP4A and ATP4B)” value was “substantial up-regulation”.

Turning to `NC(N)=Nc1nc(CSCCC(N)=NS(N)(=O)=O)cs1` [famotidine], the “histamine-induced decrease in luminal pH (acidification)” value in assay [3] (100 μM, pre-incubated at least 30 min before histamine 100 μM) was “blocked”.

As to `NCCc1c[nH]cn1` [histamine], the “luminal pH response” value was “swift and marked decrease in luminal pH” in assay [3] (histamine 100 μM); “no response” in assay [6]. Moreover, the “acridine orange (AO) accumulation” value in assay [4] is listed as “induced acridine orange (AO) dye accumulation in a canalicular-type pattern”; in assay [5] it was “AO accumulated in acidified cellular vesicles”.

B1: FGF10: growth factor (R&D Systems) added to fundic hGOs day 20-30 (protein, UniProt O15520 38-208, looked up)
Fibroblast growth factor 10: QALGQDMVSPEATNSSSSSFSSPSSAGRHVRSYNHLQGDVRWRKLFSFTKYFLKIEKNGKVSGTKKENCPYSILEITSVEIGVVAVKAINSNYYLAMNKKGKLYGSKEFNNDCKLKERIEENGYNTYASFNWQHNGRQMYVALNGKGAPRRGQKTRRKNTSAHFLPMVVHS
Regarding B1, the “glandular morphogenesis driven by CHIR” value in assay [1] (FGF10 50 ng/ml, day 20-30, data not shown) is given as “enhance the glandular morphogenesis”.

B2: BMP4: growth factor, BMP signalling activator (R&D Systems) (protein, UniProt P12644 293-408, looked up)
Bone morphogenetic protein 4: SPKHHSQRARKKNKNCRRHSLYVDFSDVGWNDWIVAPPGYQAFYCHGDCPFPLADHLNSTNHAIVQTLVNSVNSSIPKACCVPTELSAISMLYLDEYDKVVLKNYQEMVVEGCGCR
On to B2, for which the “effect of PD03 on parietal cell gene expression” value in assay [2] (BMP4 added to PD03, data not shown) is listed as “could enhance the effect of PD03”. Further, the “parietal cell gene expression (ATP4A and ATP4B)” value in assay [2] is reported as “did not affect PC gene expression”. The CDX2 expression entry in assay [1] (Noggin replaced with BMP4, with Wnt/β-catenin activation (CHIR)) was “robust expression of the intestinal transcription factor”.

(Values after patent US11066650B2, “Methods for the in vitro manufacture of gastric fundus tissue and compositions related to same” (Children's Hospital Medical Center, priority 2016, dated 2021).)
